Test results as given in US4183930A, “Amino derivatives of pyrazolo [1,5-a]s-triazine, and their therapeutic applications” (Aron S.A., priority 1978, dated 1980).
Read-outs that look alike come from different tables or passages of the source.

What was measured:
[1] = tested on: isolated trachea of guinea-pigs; assay: Dilatation of the isolated trachea of guinea-pigs (Castillo & De Beer); design: species or system guinea-pig; conditions: 10 γ/ml, tensile load 500 mg; for % dilatation (tensile variation with respect to the activity of theophylline taken as 100%): relative to theophylline = 100%
Protocol: (a) Action on the isolated trachea of guinea-pigs The trachea is prepared according to the technique disclosed by Castillo & De Beer (J. Pharmacol. Exper. […] The organ is submitted to a tensile load of 500 mg.

[2] = tested on: passive cutaneous anaphylaxis in rats; assay: Protective effect against passive cutaneous anaphylaxis (PCA) in rats; format: in vivo; conditions: Rattus norvegicus, ip, 100 mg/kg i.p., 30 min prior to ovalbumin injection, read-out: % Protection (with respect to the controls)
Protocol: (b) Protective effect against passive cutaneous anaphylaxis in rats
The protective effect against passive cutaneous anaphylaxis (PCA) in rats were investigated according to the technique disclosed by Rosenthale and co-workers (J. Pharm. Exp. Therap. 1976, 197, 725-733). Antisera were prepared by sub-cutaneous injection of 1 mg/ml ovalbumin and by intraperitoneal injection of b 30×10^9 /ml Bacillus pertussis. The PCA reaction was visualized on intravenous injection of antigen (ovalbumin) and Evans Blue in rats which had been intradermally administered the antiserum (4 injections in the shaved back of each rat) 72 hours previously. The protective effect obtained on intraperitoneal administration of the compounds at a dosage of 100 mg/kg 30 minutes prior to ovalbumin injection is set forth in Table IV.
To determine the percent protection, the length of the longest diameter o
the spot and the length of the diameter perpendicular thereto are
measured. The product is expressed as mm^2.

[3] = tested on: anaphylactic shock in mice; assay: Protective effect against anaphylactic shock in mice; format: in vivo, mouse; conditions: 100 mg/kg i.p., 30 min prior to albumin; for Number of dead animals: dead/total; for responders at 100 mg/kg: Mus musculus, ip, 0.5 h, read-out: % surviving animals
Protocol: (a) Protective effect against anaphylactic shock in mice
The protective effect against anaphylactic shock was investigated according to the technique disclosed by Duhault and co-workers (Arzneim. Forschung, 1972, II, 1947). Four weeks after sensitization to bovine albumin, intravenous injection of 0.3 mg bovine albumin in mice causes a fatal anaphylactic shock within the 30 minutes which follow said injection.
The protective effect of compounds of the formula (I), on intraperitoneal administration, at a dosage of 100 mg/kg 30 minutes prior to albumin injection is illustrated in Table III.

[4] = tested on: mice; conditions: mouse, in vivo
[5] = in vivo; conditions: mouse
[6] = tested on: rats; assay: Chronic toxicity in rats, orally, 3 months; format: in vivo, rat; conditions: 3 months, 25, 100 and 300 mg/kg
[7] = tested on: humans; assay: First clinical tests in humans; format: in vivo, human
Description: The first clinical tests provided the following data:
(2) In clinical pharmacology, functional respiratory exploration determinations provided the same bronchodilator effect found in animals.

[8] = tested on: mice; assay: Acute toxicity in mice; conditions: dosage 1000 mg/kg
[9] = tested on: dogs; assay: Chronic toxicity in dogs, 1 month; format: in vivo, dog; conditions: 20 and 160 mg/kg
[10] = tested on: bronchospasm induced by acetylcholine, serotonine and histamine; assay: Prevention of bronchospasm in anesthetized guinea-pigs (Konzett and Rossler); format: in vivo, guinea-pig; conditions: Cavia porcellus, iv, spasm by acetylcholine (10-20 γ/kg i.v.), serotonine (5 γ/kg i.v.) and histamine (10 γ/kg i.v.), read-out: ED100 (dosage providing 100% inhibition of the spasm)
[11] = Series 4 (controls 30% surviving)
[12] = Series 3 (controls 25% surviving)
[13] = Series 2 (controls 50% surviving)

Structure (SMILES)	Tensile variation [1] [mg]	% dilatation (tensile variation with respect to the activity of theophylline taken as 100%) [1] [%]	inhibition in vivo at 100 mg/kg [2] [%]	ED100 [10] [mg/kg]	LD50 ([5]; po) [mg/kg]	further results
Cc1cc2nc(N)nc(NCC3CCCO3)n2n1 (centres unmarked) [Example 8, 2-Amino-4-tetrahydrofurfurylamino-7-methyl-pyrazolo[1,5-a]s.triazine]	-72	80	54	–	–	Number of dead animals ([3]; Series 4 (controls 14/20)): 6/21; responders at 100 mg/kg [3, 11]: 71%; Number of dead animals at the dosage indicated, p.o. [4]: two
CNc1nc(N)nc2cc(C)nn12 [Example 4, 2-Amino-4-methylamino-7-methyl-pyrazolo[1,5-a]s.triazine]	-153	170	92	–	–	LD50 ([5]; iv): 300 mg/kg; alteration of the biological constants / histological injury of the various organs [6]: neither alteration of the biological constants nor histological injury of the various organs; tolerance in humans [7]: good tolerance; Number of dead animals ([3]; Series 3 (controls 15/20)): 9/20; responders at 100 mg/kg [3, 12]: 55%; LD50 p.o. ([4]; po): 1000 mg/kg
C=CCNc1nc(N)nc2ccnn12 [Example 11]	–	–	–	–	–	Number of dead animals at the dosage indicated, p.o. [8]: one
Cc1cc2nc(N)nc(NC(C)(C)C)n2n1 [Example 10]	–	–	50	–	–	Number of dead animals at the dosage indicated, p.o. [8]: one
Cc1cc2nc(N)nc(N)n2n1 [Example 2, 2,4-Diamino-7-methyl-pyrazolo[1,5-a]s.triazine]	-100	111	56	15 to 20	900	alteration of the biological constants / histological injury of the various organs [9]: neither alteration of the biological constants nor histological injury of the various organs; LD50 ([5]; iv): 380 mg/kg; alteration of the biological constants / histological injury of the various organs [6]: neither alteration of the biological constants nor histological injury of the various organs; tolerance in humans [7]: good tolerance; Number of dead animals ([3]; Series 2 (controls 10/20)): 2/21; responders at 100 mg/kg [3, 13]: 90.5%
Cn1c(=O)c2[nH]cnc2n(C)c1=O [Theophylline, reference compound]	-90	–	72	20 to 25	–	Number of dead animals ([3]; Series 2 (controls 10/20)): 4/20; responders at 100 mg/kg [3, 13]: 80%
CCCNc1nc(N)nc2cc(C)nn12 [Example 9]	–	–	69	–	–	Number of dead animals at the dosage indicated, p.o. [8]: one
Nc1nc(N)n2nccc2n1 [Example 1, 2,4-Diamino-pyrazolo[1,5-a]s.triazine]	-60	67	42	20 to 25	1250	alteration of the biological constants / histological injury of the various organs [6]: neither alteration of the biological constants nor histological injury of the various organs; tolerance in humans [7]: good tolerance; responders at 100 mg/kg ([3]; Series 1 (controls 20% surviving)): 50%; Number of dead animals ([3]; mice sensitized to bovine albumin, Series 1 (controls 16/20)): 10/20; Number of dead animals at the dosage indicated, i.v. [4]: no
CNc1nc(NC)n2nc(C)cc2n1 [Example 5, 2,4-Bis-(methylamino)-7-methyl-pyrazolo[1,5-a]s.triazine]	-207	230	83	10	300	–
C=CCNc1nc(N)nc2cc(C)nn12 [Example 7, 2-Amino-4-allylamino-7-methyl-pyrazolo[1,5-a]s.triazine]	-180	200	71	5	1200	Number of dead animals ([3]; Series 4 (controls 14/20)): 2/20; responders at 100 mg/kg [3, 11]: 90%; Number of dead animals at the dosage indicated, i.v. [4]: no
Cc1cc2nc(N)nc(NC(C)C)n2n1 [Example 6, 2-amino-4-isopropylamino-7-methyl-pyrazolo[1,5-a]s.triazine methane sulfonate]	-200	220	–	5	–	Number of dead animals ([3]; Series 3 (controls 15/20)): 12/20; responders at 100 mg/kg [3, 12]: 40%; Number of dead animals at the dosage indicated, p.o. [4]: one
CCc1nn2c(N)nc(N)nc2c1C [Example 3, 2,4-Diamino-7-ethyl-8-methyl-pyrazolo[1,5-a]s.triazine]	-100	111	92	–	200	Number of dead animals ([3]; Series 3 (controls 15/20)): 6/19; responders at 100 mg/kg [3, 12]: 68.5%
